According to patent US10654834B2 (Venenum Biodesign, LLC, priority 2016, dated 2020):

Legend:
Assay type in all cases: in vivo, mouse
[1] = Bile weight after a single oral administration in DIO mice; conditions: 30 mg/kg + sitagliptin 10 mg/kg p.o., 6, 12, 18, 24 h
Experimental: Bile Weight after a Single Oral Administration of the Compound
In this study, we evaluated if the observed GLP-1 elevation (induced by the compounds of the present invention) may be associated with gallbladder filling. We treated mice with Compound 268 and monitored the bile weight (a measure that indicated gallbladder filling) to determine if the compound retained more bile in the gallbladder as compared to the control mice (i.e., vehicle alone). A time course study was performed to measure weight of the bile aspirated from the gallbladder after oral administration of Compound 268 (30 mg/kg) in high fat diet induced obese (DIO) mice. In this study, GLP-1 levels were also measured at each time point (FIG. 9).
Approximately 12 week old DIO male mice (obtained from Taconic) were acclimated in the testing facility for over two weeks. The mice were provided a high fat diet [Research Diet D12492 (60% Fat kcal)] while in the testing facility. […] The blood samples were distributed as follows: 150-200 μL of blood were placed in an EDTA K^2+ tube containing 5 μL of 40 mg/mL aprotinin (Sigma A1153) and 1 μL of 10 mM sitagliptin (Sigma 58576) to be used for GLP-1 measurements; the remaining blood (≥250 μL) was placed in an EDTA K^2+ tube and plasma was processed for analytical chemistry and analyzed by LCMS/MS method as described in Example 81. […]

[2] = Bile weight in lean C57BL/6N mice after OGTT; conditions: 30 mg/kg + sitagliptin 3 mg/kg p.o., 6 h, versus sitagliptin alone
Experimental: In addition, bile weight was determined in the OGTT study on lean mice described in Example 84 above. At the end of that study, bile was removed from the gallbladder and weighed to approximate volume of bile contained within the gallbladder.
FIG. 7 depicts bile weight in DIO mice at 6, 12, 18, and 24 hours after oral administration of 10 mg/kg sitagliptin alone or 10 mg/kg sitagliptin+30 mg/kg Compound 268. FIG. 8 depicts the comparison in bile weight between sitagliptin (3 mg/kg, p.o.) and Compound 268 (30 mg/kg, p.o.)+sitagliptin (3 mg/kg, p.o.) following an OGTT assay in lean C57BL/6N mice, 6 hours after treatment. FIG. 9 illustrates plasma GLP-1 levels from the DIO mice at the same time points.

[3] = Plasma concentration of compound in lean C57BL/6N mice after OGTT; conditions: 6 h after 30 mg/kg + sitagliptin 3 mg/kg
Experimental: In these studies, the plasma concentration of the compounds of the present invention was measured in DIO mice as well as lean C57BL/6N mice.
In the second study (data represented in FIG. 11), plasma concentration levels were measured in lean mice after an OGTT experiment described in Example 84. The blood was collected via cardiac puncture 6 hours post compound dosing (and 2 hours after the 2 g/kg glucose bolus). The blood samples (?250 μL) were placed in an EDTA K^2+ tube and plasma was processed for analytical chemistry and analyzed by LCMS/MS method as described in Example 81. FIG. 11 depicts low levels of Compound 268 following OGTT in lean C57BL/6N mice, 6 hours after treatment with 30 mg/kg in combination with 3 mg/kg sitagliptin.

blood glucose = assay: OGTT and insulin measurements after 5 weeks of dosing in DIO mice
Source text: In the next series of studies (Examples 93-99), Male DIO mice were received at 12 weeks of age (from Taconic), and were single-housed at the testing facility and acclimated for at least 2 weeks. The mice were provided a high fat diet [Research Diet D12492 (60% Fat kcal)] while in the testing facility. Before the study initiation, the animals were randomized into 5 experimental groups by body weight. The vehicle group contained only 0.5% carboxymethylcellulose (medium viscosity)+0.25% Tween-80. The second group contained 10 mg/kg of the DPP-IV inhibitor Sitagliptin while the third group contained 30 mg/kg Compound 268. The fourth group contained the combination of 10 mg/kg Sitagliptin and 30 mg/kg Compound 268. The fifth group was the positive control for weight loss, Rimonabant. All mice were dosed BID at approximately 6:00 am and again at approximately 4:00 pm. The positive control rimonabant was administered at a dose of 10 mg/kg in the afternoon and the morning dosing was vehicle (no compound). […]
Compounds of the present invention were dosed for multiple weeks and were evaluated for their effectiveness in glycemic control. […] Insulin is also analyzed using Meso Scale Discovery according to the manufacturer's directions (item number K152BZC). Plasma samples ([…]) were loaded in duplicate onto the assay plate and measured against internal standards.

plasma concentration of compound [3]: low levels
SMILES: N#Cc1ccc(CCNC(=O)[C@@H]2CCN2c2cc(N3CCC(CCNC(=O)NCCC(=O)O)CC3)nc(C(F)(F)F)n2)cc1 [Compound 268, (S)-3-(3-(2-(1-(6-(2-((4-cyanophenethyl)carbamoyl)azetidin-1-yl)-2-(trifluoromethyl)pyrimidin-4-yl)piperidin-4-yl)ethyl)ureido)propanoic acid]
bile weight [1]: did not cause any significant increase in bile weight | bile weight [2]: no significant differences in bile weight | glucose levels in OGTT after 5 weeks of dosing (blood glucose; 30 mg/kg + sitagliptin 10 mg/kg BID, versus vehicle): reduced the glucose levels relative to vehicle | insulin levels in OGTT after 5 weeks of dosing (blood glucose; BID dosing): increased the sensitivity of the mice to insulin
